From patent US4098798A, “Adriamycins, process for their preparation and uses thereof” (Societa' Farmaceutici Italia S.p.A., priority 1974, dated 1978)
≈ marks a conversion by molar mass, not a printed value. Read-outs that look alike come from different tables or passages of the source.

Assays:
Ascites Sarcoma 180 = test: Action on Ascites Sarcoma 180 in mice; format: in vivo, mice (Swiss CD 1); details: for Average Survival time: one day after inoculation, untreated = 100%
Protocol: The tests were carried out on groups of 10 mice (Swiss CD 1). The compounds under examination were administered intraperitoneally in varying doses to the test animals one day after intraperitoneal inoculation with 1 × 10^6 tumor cells per animal. The average survival time is given in Table 1 as a percentage of the survival time of untreated animals, which is arbitrarily designated as 100%. Also given in Table 1 are the number of long term survivors.

Solid Sarcoma 180 = test: Activity on Solid Sarcoma 180 in mice; format: in vivo, Swiss CD 1 mice; details: for % Inhibition tumor growth: 10th day
[1] = system: Moloney Sarcoma Virus (MSV); test: MSV foci formation in infected mouse embryo fibroblast cultures (antiviral action); format: cell-based; details: 72 h, treatment of 3 days, read-out: Antiviral Action ID50
Protocol: (§1) The test compounds were evaluated on mouse embryo fibroblast cultures infected with MSV and on similar uninfected cultures. After a treatment of 3 days, the inhibiting doses (ID50) were evaluated on cell proliferation in uninfected cultures (cytotoxic action) and on MSV foci formation in infected cultures (antiviral action).

B-subtilis = test: inhibition zones on agar-B-subtilis plates, paper disc technique; format: cell-based; details: hydrochlorides, read-out: inhibition zone diameter
HeLa cells = test: Cloning Efficiency of Hela cells in vitro; format: cell-based; details: for IC50: Homo sapiens, HeLa, 50% inhibition of colonies
Protocol: After treatment for 2,8 or 24 hours, HeLa cells were seeded (200 cells per plate) and the number of colonies determined 8 days later.
The ID50 represents the dose which gives a 50% of inhibition of colonies.

[2] = system: Transplanted Gross Leukemia; test: Action on Transplanted Gross Leukemia in mice; format: in vivo, C3 H/He mice; details: first to fifth day
Source text: Inbred C3 H/He mice were intravenously inoculated with […] leukemia cells/mouse and treated, intravenously, from the first to the fifth day after inoculation with the compounds under examination.

[3] = cell proliferation in uninfected mouse embryo fibroblast cultures (cytotoxic action); format: cell-based; details: mouse embryo fibroblasts, treatment of 3 days, read-out: Cytotoxic Action ID50
Protocol: as §1

L1210 Leukemia = test: Action on L1210 Leukemia in mice; format: in vivo, BDF1 mice; details: 5 times every two hours on days 1 and 2
Source text: Inbred BDF1 mice were intraperitoneally inoculated with 10^5 leukemia cells/mouse, and then treated (intraperitoneally) 5 times (every two hours) on days 1 and 2 after the tumor inoculation with varying doses of the compounds under examination.

[4] = Cardiotoxic activity in vitro, beating of myocardial cells; format: cell-based, mice; details: mouse, 0.5 μg/ml, read-out: decrease of beating
[5] = 1.25 mg/Kg subcutaneously every 2 hrs for 5 times at days 1 and 3
[6] = 1.75 mg/Kg subcutaneously every 2 hrs for 5 times at days 1 and 3
[7] = 2 mg/Kg intravenously twice a day on days 1,2,3
[8] = 2.45 mg/Kg subcutaneously every 2 hrs for 5 times at days 1 and 3
[9] = 2.5 mg/Kg intravenously once a day on days 1,2,3,4,5
[10] = 2.5 mg/Kg intravenously twice a day on days 1,2,3
[11] = 3 mg/Kg intravenously twice a day on days 1,2,3

With `COc1cccc2c1C(=O)c1c(O)c3c(c(O)c1C2=O)C[C@@](O)(C(=O)CO)C[C@@H]3O[C@H]1C[C@H](N)[C@H](O)[C@H](C)O1` [Adriamycin, 7-0-(3'-amino-2',3',6'-trideoxy-α-L-lyxohexopyranosyl)-adriamycinone] the “Long Term Survivors (after 60 days)” value (Ascites Sarcoma 180; 1 mg/Kg i.p.) was 0/10, the “Average Survival time” value (Ascites Sarcoma 180; 1 mg/Kg i.p.) was 169% and the “Long Term Survivors (after 60 days)” value (Ascites Sarcoma 180; 5 mg/Kg i.p.) was 2/10. For the same molecule, the “Average Survival time” value (Ascites Sarcoma 180; 5 mg/Kg i.p.) was 276%, the “Average Survival time” value (Solid Sarcoma 180; [5]) was 112% and the “Toxic Deaths (at 10th day)” value (Solid Sarcoma 180; [5]) was 0/10. For the same molecule, the “% Inhibition tumor growth” value (Solid Sarcoma 180; [5]) was 69%, the “Average Survival time” value (Solid Sarcoma 180; [6]) was 87% and the “Toxic Deaths (at 10th day)” value (Solid Sarcoma 180; [6]) was 1/10. The “% Inhibition tumor growth” value (Solid Sarcoma 180; [6]) was 75%, the “Average Survival time” value (Solid Sarcoma 180; [7]) was 100% and the “Toxic Deaths (at 10th day)” value (Solid Sarcoma 180; [7]) was 1/10. For the same molecule, the “% Inhibition tumor growth” value (Solid Sarcoma 180; [7]) was 70%, the “Average Survival time” value (Solid Sarcoma 180; [8]) was 32% and the “Toxic Deaths (at 10th day)” value (Solid Sarcoma 180; [8]) was 6/10. The “Toxic Deaths (at 10th day)” value (Solid Sarcoma 180; [9]) was 0/10, the “% Inhibition tumor growth” value (Solid Sarcoma 180; [9]) was 54% and the “Average Survival time” value (Solid Sarcoma 180; [10]) was 100%. The “Toxic Deaths (at 10th day)” value (Solid Sarcoma 180; [10]) was 2/10, the “% Inhibition tumor growth” value (Solid Sarcoma 180; [10]) was 71% and the “Average Survival time” value (Solid Sarcoma 180; [11]) was 57%. For the same molecule, the “Toxic Deaths (at 10th day)” value (Solid Sarcoma 180; [11]) was 6/10, the “Toxic Deaths (at 10th day)” value (Solid Sarcoma 180; 3.5 mg/Kg intravenously once a day on days 1,2,3,4,5) was 7/10 and the IC50 [1] was 0.005 µg/mL (≈ 0.0092 µM). The zone of inhibition at 10 µg/disc (B-subtilis; 10 μg) was 21 mm, the zone of inhibition at 20 µg/disc (B-subtilis; 20 μg) was 23 mm and the IC50 (HeLa cells; Table 7, 2h treatment, read-out: DI50 (the source's name)) was 0.17 µg/mL (≈ 0.313 µM). The IC50 (HeLa cells; Table 7, 8h treatment, read-out: DI50 (the source's name)) was 0.14 µg/mL (≈ 0.258 µM), the IC50 (HeLa cells; Table 7, 24h treatment, read-out: DI50 (the source's name)) was 0.016 µg/mL (≈ 0.0294 µM) and the IC50 (HeLa cells; Table 8, 2h treatment, read-out: DI 50 (the source's name)) was 0.35 µg/mL (≈ 0.644 µM). For the same molecule, the IC50 (HeLa cells; Table 8, 8h treatment, read-out: DI 50 (the source's name)) was 0.18 µg/mL (≈ 0.331 µM), the IC50 (HeLa cells; Table 8, 24h treatment, read-out: DI 50 (the source's name)) was 0.125 µg/mL (≈ 0.23 µM) and the “Average Number of Colonies” value (HeLa cells; Table 7, 0.05 μg/ml, 24h, control 223) was 76. The “Average Number of Colonies” value (HeLa cells; Table 7, 0.1 μg/ml, 2h, control 132) was 79, the “Average Number of Colonies” value (HeLa cells; Table 7, 0.1 μg/ml, 8h, control 125) was 73 and the “Average Number of Colonies” value (HeLa cells; Table 7, 0.1 μg/ml, 24h, control 223) was 48. For the same molecule, the “Average Number of Colonies” value (HeLa cells; Table 7, 0.25 μg/ml, 2h, control 132) was 46, the “Average Number of Colonies” value (HeLa cells; Table 7, 0.25 μg/ml, 8h, control 125) was 38 and the “Average Number of Colonies” value (HeLa cells; Table 7, 0.25 μg/ml, 24h, control 223) was 20. The “Average Number of Colonies” value (HeLa cells; Table 7, 0.5 μg/ml, 2h, control 132) was 42, the “Average Number of Colonies” value (HeLa cells; Table 7, 0.5 μg/ml, 8h, control 125) was 16 and the “Average Number of Colonies” value (HeLa cells; Table 7, 0.5 μg/ml, 24h, control 223) was 0. The “Average Number of Colonies” value (HeLa cells; Table 7, 1 μg/ml, 2h, control 132) was 21, the “Average Number of Colonies” value (HeLa cells; Table 7, 1 μg/ml, 8h, control 125) was 8 and the “Average Number of Colonies” value (HeLa cells; Table 7, 1 μg/ml, 24h, control 223) was 0. For the same molecule, the “Average Number of Colonies” value (HeLa cells; Table 8, 0.125 μg/ml, 2h, control 156) was 166, the “Average Number of Colonies” value (HeLa cells; Table 8, 0.125 μg/ml, 24h, control 136) was 69 and the “Average Number of Colonies” value (HeLa cells; Table 8, 0.25 μg/ml, 2h, control 156) was 92. For the same molecule, the “Average Number of Colonies” value (HeLa cells; Table 8, 0.25 μg/ml, 8h, control 189) was 28, the “Average Number of Colonies” value (HeLa cells; Table 8, 0.25 μg/ml, 24h, control 136) was 43 and the “Average Number of Colonies” value (HeLa cells; Table 8, 0.5 μg/ml, 2h, control 156) was 27. The “Average Number of Colonies” value (HeLa cells; Table 8, 0.5 μg/ml, 8h, control 189) was 14, the “Long Term Survivors (after 60 days)” value ([2]; 2 mg/Kg i.v.) was 0/10 and the “Average Survival time, Exp. 1” value ([2]; 2 mg/Kg i.v.) was 183%. The “Long Term Survivors (after 60 days)” value ([2]; 2.5 mg/Kg i.v.) was 0/20, the “Average Survival time, Exp. 1” value ([2]; 2.5 mg/Kg i.v.) was 208% and the “Average Survival time, Exp. 2” value ([2]; 2.5 mg/Kg i.v.) was 186%. The “Long Term Survivors (after 60 days)” value ([2]; 2.75 mg/Kg i.v.) was 0/10, the “Average Survival time, Exp. 1” value ([2]; 2.75 mg/Kg i.v.) was 208% and the “Long Term Survivors (after 60 days)” value ([2]; 3 mg/Kg i.v.) was 0/10. The “Average Survival time, Exp. 2” value ([2]; 3 mg/Kg i.v.) was 186%, the “Long Term Survivors (after 60 days)” value ([2]; 3.6 mg/Kg i.v.) was 0/10 and the “Average Survival time, Exp. 2” value ([2]; 3.6 mg/Kg i.v.) was 200%. The CC50 at 72 h [3] was 0.01 µg/mL (≈ 0.0184 µM), the “Average Survival time” value (L1210 Leukemia; 0.75 mg/Kg i.p.) was 160% and the “Average Survival time” value (L1210 Leukemia; 1 mg/Kg i.p.) was 155%. The “Long Term Survivors (after 60 days)” value (L1210 Leukemia; 1 mg/Kg i.p.) was 1/10, the “Average Survival time” value (L1210 Leukemia; 1.25 mg/Kg i.p.) was 175% and the inhibition at 2 h [4] was 50%.
